# Biological target: T1, human renal renin (Homo sapiens, UniProt P00797)
# T1 construct: human renal renin, free from acid proteolytic activity; from tissue
# T1 sequence (P00797 67-406): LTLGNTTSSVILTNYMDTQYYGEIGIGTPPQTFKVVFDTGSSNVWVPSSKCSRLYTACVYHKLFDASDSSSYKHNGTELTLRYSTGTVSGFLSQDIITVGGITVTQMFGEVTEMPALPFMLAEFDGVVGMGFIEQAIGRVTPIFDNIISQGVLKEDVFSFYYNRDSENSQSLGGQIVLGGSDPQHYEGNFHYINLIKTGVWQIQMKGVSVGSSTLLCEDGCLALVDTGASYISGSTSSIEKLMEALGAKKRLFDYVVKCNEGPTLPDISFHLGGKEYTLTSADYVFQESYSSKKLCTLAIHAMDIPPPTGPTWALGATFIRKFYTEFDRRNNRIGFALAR
# Assay: Inhibition of human renal renin in vitro (angiotensin I formed measured by radioimmunoassay)
# Format: biochemical
# Details: human renal renin free from acid proteolytic activity, renin substrate human angiotensinogen, 37 degrees C, pH 6.0; read-out: IC50 (molar concentration required to cause 50% inhibition)
# Protocol: The compounds of the invention are also useful for treating congestive heart failure in a mammal. […] At the end of the incubation, the amount of angiotensin I formed is measured by radioimmunoassay and the molar concentration required to cause 50% inhibition, expressed as the IC50, is calculated.
row,Compound,IC50
1,"CC(C)C[C@H](O)[C@H](O)[C@H](CC1CCCCC1)NC(=O)[C@H](Cc1cc[nH]n1)NC(=O)[C@@H](CC(=O)N(C)CCN1CCOCC1)Cc1ccccc1 [Example 155, (2R)-2-Benzyl-3-[(2-morpholin-4-ylethyl)methylcarbonyl]propionyl-L-(3-pyrazolyl)Ala Amide of (2S,3R,4S)-2-Amino-1-cyclohexyl-3,4-dihydroxy-6-methylheptane]",0.32 nM
2,"CC(C)C[C@H](O)[C@H](O)[C@H](CC1CCCCC1)NC(=O)C(Cn1cccn1)N(C)C(=O)[C@@H](CC(=O)N(C)CCc1ccccn1)Cc1ccccc1 (stereo partly drawn) [Example 134, (2R)-2-Benzyl-3-[(2-pyridin-2-ylethyl)methylaminocarbonyl]propionyl-(N-α-methyl)-(1-pyrazolyl) alanine Amide of (2S,3R,4S)-2-Amino-1-cyclohexyl-3,4-dihydroxy-6-methylheptane]",1.3 nM
3,"CC(C)C[C@H](O)[C@H](O)[C@H](CC1CCCCC1)NC(=O)[C@H](Cc1cscn1)NC(=O)[C@@H](CC(=O)N(C)CCN1CCN(C)CC1)Cc1ccccc1 [Example 116, (2R)-2-Benzyl-3-[2-(4-methyloioerazin-1-ylethyl)methylaminocarbonyl]propionyl-L-(4-thiazolyl) Ala Amide of (2S,3R,4S)-2-Amino-1-cyclohexyl-3,4-dihydroxy-6-methylheptane]",0.35 nM
4,"CC(C)C[C@H](O)[C@H](O)[C@H](CC1CCCCC1)NC(=O)[C@H](Cn1cccn1)NC(=O)[C@@H](CC(=O)N(C)CCN1CCOCC1)Cc1ccccc1 [Example 140, (2R)-2-Benzyl-3-[(2-morpholin-4-ylethyl)methylaminocarbonyl]propionyl-L-(1-pyrazolyl)Ala Amide of (2S,3R,4S)-2-Amino-1-cyclohexyl-3,4-dihydroxy-6-methylheptane.]",0.12 nM
5,"CC(C)C[C@H](O)[C@H](O)[C@H](CC1CCCCC1)NC(=O)[C@H](Cc1cscn1)NC(=O)[C@@H](CC(=O)N(C)CCc1c[nH]c2ccccc12)Cc1ccccc1 [Example 152, (2R)-2-Benzyl-3-[(2-indol-3-ylethyl)methylaminocarbonyl]propionyl-L-(4-thiazolyl)Ala Amide of (2S,3R,4S)-2-Amino-1-cyclohexyl-3,4-dihydroxy-6-methylheptane]",0.59 nM
6,"CC(C)C[C@H](O)[C@H](O)[C@H](CC1CCCCC1)NC(=O)[C@H](Cc1cccs1)NC(=O)[C@@H](CC(=O)N(C)CCn1cccn1)Cc1ccccc1 [Example 106, (2R)-2-Benzyl-3-[(2-pyrazol-1-ylethyl)methylaminocarbonyl]propionyl-L-(2-thienyl)Ala Amide of (2S,3R,4S)-2-Amino-1-cyclohexyl-3,4-dihydroxy-6-methylheptane]",0.38 nM
7,"CN=c1scc(C[C@@H](Cc2ccccc2)C(=O)N[C@@H](Cc2cscn2)C(=O)N[C@@H](CC2CCCCC2)[C@@H](O)[C@@H](O)CC(C)C)n1C [Example 103, (2R)-2-Benzyl-3-(2-methylimino-3-methyl-2,3-dihydrothiazol-4-yl)propionyl-L-(4-thiazolyl) Ala Amide of (2S,3R,4S)-2-Amino-1-cyclohexyl-3,4-dihydroxy-6-methylheptane]",0.43 nM
8,"CC(C)C[C@H](NC(=O)[C@H](Cc1cscn1)NC(=O)[C@@H](CC(=O)N(C)CCn1cccn1)Cc1ccccc1)[C@@H](O)[C@@H](O)CC(C)C [Example 111, (2R)-2-Benzyl-3-[(2-pyrazol-1-ylethyl)methylaminocarbonyl]propionyl-L-(4-Thiazolyl)Ala Amide of (4S,5R,6S)-6-Amino-4,5-dihydroxy-2,8-dimethylnonane]",0.49 nM
9,"CC(C)C[C@H](O)[C@H](O)[C@H](CC1CCCCC1)NC(=O)[C@H](Cc1cscn1)NC(=O)[C@@H](Cc1ccccc1)CS(=O)(=O)N(C)CCc1ccccn1 [Example 109, (2R)-2-Benzyl-3-[[2-pyridin-2-ylethyl(methyl)amino]sulfonyl]propionyl-L-(4-thiazolyl)Ala Amide of (2S,3R,4S)-2-Amino-1-cyclohexyl-3,4-dihydroxy-6-methylheptane]",0.25 nM
